Measurements as given in PubChem BioAssay (NCI).
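Following 48 hours of exposure in 96-well plates, responses at five concentrations were used to interpolate endpoints linearly. GI50 = concentration required for 50% inhibition of growth. TGI: total growth inhibition.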

Experiments:
Experiment in all cases: inhibition of tumour cell growth, NCI panel, 48 h
T-47D breast = test system: T-47D breast
NCI-H226 lung = test system: NCI-H226 lung
MDA-MB-231 breast = test system: MDA-MB-231 breast
U251 CNS = test system: U251 CNS
MDA-N = test system: MDA-N
SK-OV-3 ovarian = test system: SK-OV-3 ovarian
COLO 205 colon = test system: COLO 205 colon
PC-3 prostate = test system: PC-3 prostate
OVCAR-8 ovarian = test system: OVCAR-8 ovarian
DU-145 prostate = test system: DU-145 prostate
A498 renal = test system: A498 renal
SR leukemia = test system: SR leukemia
786-0 renal = test system: 786-0 renal
SNB-19 CNS = test system: SNB-19 CNS
HT29 colon = test system: HT29 colon
BT-549 breast = test system: BT-549 breast
MALME-3M melanoma = test system: MALME-3M melanoma
NCI-H23 lung = test system: NCI-H23 lung
ACHN renal = test system: ACHN renal
HCT-15 colon = test system: HCT-15 colon
EKVX NSCLC = test system: EKVX NSCLC
SF-268 CNS = test system: SF-268 CNS
HCC-2998 colon = test system: HCC-2998 colon
HOP-92 NSCLC = test system: HOP-92 NSCLC
SK-MEL-28 melanoma = test system: SK-MEL-28 melanoma
NCI/ADR-RES ovarian = test system: NCI/ADR-RES ovarian
SF-539 CNS = test system: SF-539 CNS
NCI-H460 lung = test system: NCI-H460 lung
MOLT-4 leukemia = test system: MOLT-4 leukemia
UACC-257 melanoma = test system: UACC-257 melanoma
SK-MEL-5 melanoma = test system: SK-MEL-5 melanoma
HOP-62 NSCLC = test system: HOP-62 NSCLC
HCT-116 colon = test system: HCT-116 colon
A549 NSCLC = test system: A549 NSCLC
MCF7 breast = test system: MCF7 breast
MDA-MB-435 = test system: MDA-MB-435
UO-31 renal = test system: UO-31 renal
OVCAR-3 ovarian = test system: OVCAR-3 ovarian
LOX IMVI melanoma = test system: LOX IMVI melanoma
RPMI-8226 leukemia = test system: RPMI-8226 leukemia
SF-295 CNS = test system: SF-295 CNS
CCRF-CEM leukemia = test system: CCRF-CEM leukemia
SW-620 colon = test system: SW-620 colon
HL-60(TB) leukemia = test system: HL-60(TB) leukemia
OVCAR-5 ovarian = test system: OVCAR-5 ovarian
TK-10 renal = test system: TK-10 renal
CAKI-1 renal = test system: CAKI-1 renal
M14 melanoma = test system: M14 melanoma
KM12 colon = test system: KM12 colon
SN12C renal = test system: SN12C renal
IGROV1 ovarian = test system: IGROV1 ovarian
RXF 393 renal = test system: RXF 393 renal
NCI-H522 lung = test system: NCI-H522 lung
SNB-75 CNS = test system: SNB-75 CNS
HS 578T breast = test system: HS 578T breast
K-562 leukemia = test system: K-562 leukemia
SK-MEL-2 melanoma = test system: SK-MEL-2 melanoma
OVCAR-4 ovarian = test system: OVCAR-4 ovarian
UACC-62 melanoma = test system: UACC-62 melanoma

For C#CCN(Cc1ccc2nc(N)[nH]c(=O)c2c1)c1ccc(C(=O)NC(CCC(=O)O)C(=O)O)cc1 (configuration not stated), the TGI (T-47D breast) was > 100 µM, the TGI (NCI-H226 lung) was > 100 µM and the TGI (MDA-MB-231 breast) was > 100 µM. The TGI (U251 CNS) was > 100000 nM, the TGI (MDA-N) was > 100 µM and the TGI (SK-OV-3 ovarian) was > 100 µM. For the same compound, the TGI (COLO 205 colon) was > 100 µM, the TGI (PC-3 prostate) was > 100 µM and the TGI (OVCAR-8 ovarian) was > 100 µM. For the same compound, the TGI (DU-145 prostate) was > 100 µM, the TGI (A498 renal) was > 100 µM and the TGI (SR leukemia) was > 100000 nM. For the same compound, the TGI (786-0 renal) was > 100 µM, the TGI (SNB-19 CNS) was > 100 µM and the TGI (HT29 colon) was > 100 µM. For the same compound, the TGI (BT-549 breast) was > 100 µM, the TGI (MALME-3M melanoma) was > 100 µM and the TGI (NCI-H23 lung) was > 100 µM. For the same compound, the TGI (ACHN renal) was > 100 µM, the TGI (HCT-15 colon) was > 100000 nM and the TGI (EKVX NSCLC) was > 100 µM. For the same compound, the TGI (SF-268 CNS) was > 100 µM, the TGI (HCC-2998 colon) was > 100 µM and the TGI (HOP-92 NSCLC) was > 100 µM. The TGI (SK-MEL-28 melanoma) was > 100 µM, the TGI (NCI/ADR-RES ovarian) was > 100 µM and the TGI (SF-539 CNS) was > 100 µM. For the same compound, the TGI (NCI-H460 lung) was > 100 µM, the TGI (MOLT-4 leukemia) was > 100 µM and the TGI (UACC-257 melanoma) was > 100 µM. For the same compound, the TGI (SK-MEL-5 melanoma) was > 100000 nM, the TGI (HOP-62 NSCLC) was > 100 µM and the TGI (HCT-116 colon) was > 100000 nM. For the same compound, the TGI (A549 NSCLC) was > 100 µM, the TGI (MCF7 breast) was > 100 µM and the TGI (MDA-MB-435) was > 100 µM. For the same compound, the TGI (UO-31 renal) was > 100 µM, the TGI (OVCAR-3 ovarian) was > 100000 nM and the TGI (LOX IMVI melanoma) was > 100000 nM. For the same compound, the TGI (RPMI-8226 leukemia) was > 100 µM, the TGI (SF-295 CNS) was > 100 µM and the TGI (CCRF-CEM leukemia) was > 100000 nM. For the same compound, the TGI (SW-620 colon) was > 100 µM, the TGI (HL-60(TB) leukemia) was > 100 µM and the TGI (OVCAR-5 ovarian) was > 100 µM. The TGI (TK-10 renal) was > 100 µM, the TGI (CAKI-1 renal) was > 100 µM and the TGI (M14 melanoma) was > 100 µM. The TGI (KM12 colon) was > 100 µM, the TGI (SN12C renal) was > 100 µM and the TGI (IGROV1 ovarian) was > 100 µM.

CC/C=C\C/C=C\C[C@H](O)C/C=C1/C(=O)C=C[C@@H]1C/C=C\CCCC(=O)OC was tested, and the GI50 (T-47D breast) was 2100 nM, the TGI (T-47D breast) was 9.38 µM and the GI50 (RXF 393 renal) was 1970 nM. For the same compound, the TGI (RXF 393 renal) was 3.61 µM, the GI50 (NCI-H226 lung) was 1920 nM and the TGI (NCI-H226 lung) was 3.79 µM. It also gave a GI50 (MDA-MB-231 breast) of 3 µM, a TGI (MDA-MB-231 breast) of 10.3 µM and a GI50 (U251 CNS) of 1450 nM. For the same compound, the TGI (U251 CNS) was 2830 nM, the GI50 (SK-OV-3 ovarian) was 5.27 µM and the TGI (SK-OV-3 ovarian) was 15 µM. It also gave a GI50 (COLO 205 colon) of 1770 nM, a TGI (COLO 205 colon) of 3.78 µM and a GI50 (PC-3 prostate) of 2540 nM. For the same compound, the TGI (PC-3 prostate) was 6.68 µM, the GI50 (OVCAR-8 ovarian) was 774 nM and the TGI (OVCAR-8 ovarian) was 13 µM. The GI50 (DU-145 prostate) was 3.6 µM, the TGI (DU-145 prostate) was 14.6 µM and the GI50 (A498 renal) was 2480 nM. For the same compound, the TGI (A498 renal) was 4.67 µM, the GI50 (SR leukemia) was 281 nM and the TGI (SR leukemia) was 1870 nM. For the same compound, the GI50 (786-0 renal) was 1820 nM, the TGI (786-0 renal) was 3.52 µM and the GI50 (SNB-19 CNS) was 3.05 µM. The TGI (SNB-19 CNS) was 13.7 µM, the GI50 (HT29 colon) was 1480 nM and the TGI (HT29 colon) was 3.21 µM. The GI50 (BT-549 breast) was 1830 nM, the TGI (BT-549 breast) was 4.01 µM and the GI50 (MALME-3M melanoma) was 1920 nM. The TGI (MALME-3M melanoma) was 4.88 µM, the GI50 (NCI-H23 lung) was 2190 nM and the TGI (NCI-H23 lung) was 5.29 µM. It also gave a GI50 (ACHN renal) of 1720 nM, a TGI (ACHN renal) of 3.4 µM and a GI50 (HCT-15 colon) of 494 nM. It also gave a TGI (HCT-15 colon) of 2380 nM, a GI50 (EKVX NSCLC) of 3.15 µM and a TGI (EKVX NSCLC) of 10.9 µM. It also gave a GI50 (SF-268 CNS) of 2570 nM, a TGI (SF-268 CNS) of 11 µM and a GI50 (NCI-H522 lung) of 1030 nM. For the same compound, the TGI (NCI-H522 lung) was 2360 nM, the GI50 (HCC-2998 colon) was 2030 nM and the TGI (HCC-2998 colon) was 3.48 µM. It also gave a GI50 (HOP-92 NSCLC) of 2620 nM, a TGI (HOP-92 NSCLC) of 6.02 µM and a GI50 (SNB-75 CNS) of 11.3 µM. The TGI (SNB-75 CNS) was 24.6 µM, the GI50 (SK-MEL-28 melanoma) was 1780 nM and the TGI (SK-MEL-28 melanoma) was 4 µM. It also gave a GI50 (NCI/ADR-RES ovarian) of 1780 nM, a TGI (NCI/ADR-RES ovarian) of 7.41 µM and a GI50 (SF-539 CNS) of 2530 nM. For the same compound, the TGI (SF-539 CNS) was 6.09 µM, the GI50 (NCI-H460 lung) was 3.2 µM and the TGI (NCI-H460 lung) was 10.7 µM. It also gave a GI50 (MOLT-4 leukemia) of 1200 nM, a TGI (MOLT-4 leukemia) of 4.41 µM and a GI50 (HS 578T breast) of 6.59 µM. The TGI (HS 578T breast) was 46.7 µM, the GI50 (UACC-257 melanoma) was 1830 nM and the TGI (UACC-257 melanoma) was 4.32 µM. It also gave a GI50 (SK-MEL-5 melanoma) of 1540 nM, a TGI (SK-MEL-5 melanoma) of 2930 nM and a GI50 (HOP-62 NSCLC) of 1650 nM. The TGI (HOP-62 NSCLC) was 4.1 µM, the GI50 (HCT-116 colon) was 841 nM and the TGI (HCT-116 colon) was 2290 nM. It also gave a GI50 (A549 NSCLC) of 2400 nM, a TGI (A549 NSCLC) of 5.62 µM and a GI50 (MCF7 breast) of 329 nM. It also gave a TGI (MCF7 breast) of 5.2 µM, a GI50 (K-562 leukemia) of 546 nM and a TGI (K-562 leukemia) of 12.5 µM. For the same compound, the GI50 (MDA-MB-435) was 1210 nM, the TGI (MDA-MB-435) was 6.26 µM and the GI50 (UO-31 renal) was 1550 nM. It also gave a TGI (UO-31 renal) of 3.03 µM, a GI50 (OVCAR-3 ovarian) of 799 nM and a TGI (OVCAR-3 ovarian) of 2200 nM. It also gave a GI50 (LOX IMVI melanoma) of 210 nM, a TGI (LOX IMVI melanoma) of 493 nM and a GI50 (RPMI-8226 leukemia) of 572 nM. For the same compound, the TGI (RPMI-8226 leukemia) was 7.32 µM, the GI50 (SF-295 CNS) was 2300 nM and the TGI (SF-295 CNS) was 5.56 µM. The GI50 (CCRF-CEM leukemia) was 315 nM, the TGI (CCRF-CEM leukemia) was 1770 nM and the GI50 (SW-620 colon) was 834 nM. For the same compound, the TGI (SW-620 colon) was 10.3 µM, the GI50 (SK-MEL-2 melanoma) was 1720 nM and the TGI (SK-MEL-2 melanoma) was 3.79 µM. For the same compound, the GI50 (HL-60(TB) leukemia) was 1710 nM, the TGI (HL-60(TB) leukemia) was 6.06 µM and the GI50 (OVCAR-4 ovarian) was 4.06 µM. The TGI (OVCAR-4 ovarian) was 20.2 µM, the GI50 (OVCAR-5 ovarian) was 2750 nM and the TGI (OVCAR-5 ovarian) was 6.94 µM. The GI50 (UACC-62 melanoma) was 714 nM, the TGI (UACC-62 melanoma) was 2850 nM and the GI50 (TK-10 renal) was 2950 nM. The TGI (TK-10 renal) was 7.68 µM, the GI50 (CAKI-1 renal) was 3.41 µM and the TGI (CAKI-1 renal) was 14.5 µM. For the same compound, the GI50 (M14 melanoma) was 1430 nM, the TGI (M14 melanoma) was 3.53 µM and the GI50 (KM12 colon) was 1800 nM. The TGI (KM12 colon) was 5.02 µM, the GI50 (SN12C renal) was 1900 nM and the TGI (SN12C renal) was 5.01 µM. The GI50 (IGROV1 ovarian) was 2860 nM and the TGI (IGROV1 ovarian) was 7.86 µM.
